Measured values: patent EP0835604A1, “Halopropargyl compounds as marine antifouling agents” (ROHM AND HAAS COMPANY, priority 1996, dated 1998)

What was measured:
Artemia = assay: Toxicity to Artemia nauplii in ASTM sea water, 96 well plate serial dilution; assay type: in vivo, Artemia salina; details: 24 Hours; highest dilution in which all of the nauplii are dead; 25 °C
Method: Tests were conducted to determine the toxicity of the marine antifouling agents of the invention to Artemia. Artemia are indicative of hard fouling organisms.
Substitute ocean water was prepared following ASTM Method D 1141-90. The water was sterilized by filtration through a 0.22 micron cellulose acetate membrane filter. San Francisco Bay Brand® Artemia salina cysts were purchased from a local aquarium supply store. The cysts were hatched in a 250 mL Erlenmeyer flask. The Artemia cysts (0.2 g) were weighed into a sterilized flask. One hundred mL of sterile ASTM sea water was added to the flask. The flask was placed on an orbital shaker set at approximately 150 rotations per minute and 28 °C. After 24 hours, the contents of the flask were poured into a separatory funnel. The egg shells were separated from the Artemia nauplii (larvae), as the shells floated to the top. The nauplii were returned to the flask for another 24 hours shaking. The inoculum was prepared by pouring the nauplii into a crystallizing dish 48 hours after the cysts were originally placed on the shaker. After the nauplii congregated, they were taken up in a sterile serological pipette and transferred into another crystallizing dish. […] The number of nauplii in 3 to 4 wells was counted under a microscope. […]
Plates were read under a low magnification microscope 24 and 48 hours after the nauplii were added to the plate. […]

[1] = system: Amphora coffeaeformis var. perpusilla; assay: Toxicity to Amphora: growth inhibition by chlorophyll a concentration; assay type: cell-based; details: 96 hours at 20 °C, % inhibition of the mean control; for EC 50: dose effective at preventing 50% growth; for EC 100: dose effective at preventing 100% growth
Method: Tests were conducted to determine the toxicity of the marine antifouling agents of the invention to Amphora. Amphora are indicative of soft fouling organisms. Amphora coffeaeformis var. perpusilla was isolated from a natural biofilm and cultured axenically in Guillard's F2 medium. A log phase culture of Amphora was diluted with the F2 medium to give a chlorophyll a concentration of 0.25 µg/mL. Chlorophyll a was measured by passing a measured volume (FV) of cell culture through a 3 µm pore, 25 mm diameter cellulose nitrate filter. The filter plus trapped algal cells was transferred to a glass tube. A measured volume (SV) of DMSO solvent was added to the glass tube. The tubes were incubated for 1.5 hours in darkness. After incubation, the absorbance of the sample was read in a spectrophotometer at 630 and 664 nm against a DMSO/filter blank. The chlorophyll a concentration can be calculated using the following equation: Chlorophylla(µg/mL) = 11.47 x Abs664 - 0.4 x Abs630 x SV/FV [formula] Ten mL of the diluted culture was pipetted into glass tubes. Ten µL of marine antifouling agent or, in the case of controls, DMF was added to each glass tube. The tubes were incubated on an illuminated orbital shaker at 20 °C for 96 hours before the chlorophyll a concentration of each tube was measured Three replicates of each treatment were used. The effects of marine antifouling agents are calculated as % inhibition of the mean control. The EC 50 is the dose effective at preventing 50% growth. The EC 100 is the dose effective at preventing 100% growth.

Row | Structure (SMILES) | Artemia LC 100 (Artemia) | EC 50 [1] | EC 100 [1]
1 | CCCCCCCC[N+](CC#CBr)(CCCCCCCC)CCCCCCCC.O=S(=O)([O-])c1ccccc1 [Compound 18, trioctyl-(3-bromopropargyl)ammonium benzenesulfonate] | <8 ppm |  | 
2 | CCCCCCCCCCCCCC[N+]1(CC#CI)CCCC1.Cc1ccc(S(=O)(=O)[O-])cc1 [Compound 36, 1-tetradecyl-1-(3-iodopropargyl)-pyrrolidinium 4-methylbenzenesulfonate] | 1 ppm | 1.9 ppm | 5 ppm
3 | CC1(C)C(=O)N(Cc2ccccc2)C(=O)N1CC#CI [Compound 138, 1-(3-iodopropargyl)-3-benzyl-5,5-dimethylhydantoin] |  | 2.5 ppm | 20 ppm
4 | O=c1oc2ccccc2n1CC#CI [Compound 146, 3-(3-iodopropargyl)-2-benzoxazolone] |  | 3 ppm | 20 ppm
